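A five-concentration, 48-hour dose response in 96-well plates underlies each endpoint, interpolated linearly between surrounding concentrations. The concentration for 50% growth inhibition is given as GI50.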 Active and inactive are the calls of the source. No stated cut-off is given here; in the data, active = GI50 up to about 1.1 µM and inactive = higher.
Legend:
Test in all cases: NCI tumour cell line growth inhibition, 48 h
786-0 = tested on: 786-0
ACHN = tested on: ACHN
CAKI-1 = tested on: CAKI-1
HCT-116 = tested on: HCT-116
HT-29 = tested on: HT-29
K562 = tested on: K562
KM12 = tested on: KM12
MCF7 = tested on: MCF7
MOLT-4 = tested on: MOLT-4
NCI/ADR-RES = tested on: NCI/ADR-RES
OVCAR-4 = tested on: OVCAR-4
OVCAR-5 = tested on: OVCAR-5
PC-3 = tested on: PC-3
SF-539 = tested on: SF-539
SK-MEL-28 = tested on: SK-MEL-28
SK-MEL-2 = tested on: SK-MEL-2
SN12C = tested on: SN12C
SNB-19 = tested on: SNB-19
SW-620 = tested on: SW-620
U-251 = tested on: U-251

Row | Structure (SMILES) | GI50 (786-0) | GI50 (ACHN) | GI50 (CAKI-1) | GI50 (HCT-116) | GI50 (HT-29) | GI50 (K562) | GI50 (KM12) | GI50 (MCF7) | GI50 (MOLT-4) | GI50 (NCI/ADR-RES) | GI50 (OVCAR-4) | GI50 (OVCAR-5) | GI50 (PC-3) | GI50 (SF-539) | GI50 (SK-MEL-28) | GI50 (SK-MEL-2) | GI50 (SN12C) | GI50 (SNB-19) | GI50 (SW-620) | GI50 (U-251)
1 | CCC1(CC)N=C(C(F)(F)F)c2cc(C(=O)C(F)(F)F)c3ccccc3c2N1 | 3.87 µM (inactive) | 4.3 µM (inactive) | 3.99 µM (inactive) | 3.44 µM (inactive) | 3.7 µM (inactive) | 3.72 µM (inactive) | 3.99 µM (inactive) | 3.77 µM (inactive) | 2.82 µM (inactive) | 4.14 µM (inactive) | 4.57 µM (inactive) | 13.4 µM (inactive) | 3.3 µM (inactive) | 17.9 µM (inactive) | 8.26 µM (inactive) | 2.81 µM (inactive) | 3.41 µM (inactive) | 5.15 µM (inactive) | 4.78 µM (inactive) | 3.64 µM (inactive)
2 | CC(C)NC(NC(C)C)=C(S(=O)(=O)C(F)(F)C(F)(F)C(F)(F)C(F)(F)F)S(=O)(=O)C(F)(F)C(F)(F)C(F)(F)C(F)(F)F | > 100 µM (inactive) | > 100 µM (inactive) | > 100 µM (inactive) | > 100 µM (inactive) | > 100 µM (inactive) | > 100 µM (inactive) | > 100 µM (inactive) | > 100 µM (inactive) | > 100 µM (inactive) | > 100 µM (inactive) | > 100 µM (inactive) | > 100 µM (inactive) | > 100 µM (inactive) | > 100 µM (inactive) | > 100 µM (inactive) | > 100 µM (inactive) | > 100 µM (inactive) | > 100 µM (inactive) | > 100 µM (inactive) | > 100 µM (inactive)
3 | Nc1c2ccccc2nc2ccc3c(=O)cc(-c4ccccc4)oc3c12 | 0.436 µM (active) | 1.12 µM (active) | 1.33 µM (inactive) | 0.299 µM (active) | 0.465 µM (active) | 0.272 µM (active) | 0.596 µM (active) | 0.649 µM (active) | 0.435 µM (active) | 1.35 µM (inactive) | 0.426 µM (active) | 1.5 µM (inactive) | 1.26 µM (inactive) | 1.33 µM (inactive) | 1.55 µM (inactive) | 1.96 µM (inactive) | 0.979 µM (active) | 1.26 µM (inactive) | 0.327 µM (active) | 0.531 µM (active)
4 | CC/C=C\C=C/C(=O)N/C=C/CCC | > 100 µM (inactive) | > 100 µM (inactive) | > 100 µM (inactive) | 38.9 µM (inactive) | 78.3 µM (inactive) | > 100 µM (inactive) | > 100 µM (inactive) | 78.3 µM (inactive) | 22.8 µM (inactive) | > 100 µM (inactive) | > 100 µM (inactive) | > 100 µM (inactive) | 85.1 µM (inactive) | > 100 µM (inactive) | > 100 µM (inactive) | > 100 µM (inactive) | > 100 µM (inactive) | > 100 µM (inactive) | > 100 µM (inactive) | > 100 µM (inactive)
5 | O=C1C(SCCO)=C(SCCO)C(=O)c2ccccc21 | 2.04 µM (inactive) | 0.807 µM (active) | 2.08 µM (inactive) | 1.86 µM (inactive) | 2.16 µM (inactive) | 1.67 µM (inactive) | 1.75 µM (inactive) | 0.791 µM (active) | 0.0794 µM (active) | 0.94 µM (active) | 0.252 µM (active) | 1.16 µM (inactive) | 2.1 µM (inactive) | 0.745 µM (active) | 1.67 µM (inactive) | 2 µM (inactive) | 1.6 µM (inactive) | 1.78 µM (inactive) | 0.695 µM (active) | 0.711 µM (active)
6 | Clc1ccc(COC(Cn2ccnc2)c2ccc(Cl)cc2Cl)cc1 (stereo not given) [ECONAZOLE NITRATE] | 12.6 µM (inactive) | 12.8 µM (inactive) | 7.31 µM (inactive) | 6.67 µM (inactive) | 8.49 µM (inactive) | 4.62 µM (inactive) | 12.1 µM (inactive) | 8.26 µM (inactive) | 2.75 µM (inactive) | 5.42 µM (inactive) | 8.3 µM (inactive) | 14.5 µM (inactive) | 9.16 µM (inactive) | 13.6 µM (inactive) | 14.8 µM (inactive) | 15 µM (inactive) | 12.1 µM (inactive) | 14.9 µM (inactive) | 11.3 µM (inactive) | 12.6 µM (inactive)
7 | COc1ccccc1NC(=O)CC(=O)NN | > 100 µM (inactive) | > 100 µM (inactive) | > 100 µM (inactive) | > 100 µM (inactive) | > 100 µM (inactive) | > 100 µM (inactive) | > 100 µM (inactive) | > 100 µM (inactive) | > 100 µM (inactive) | 9.77 µM (inactive) | > 100 µM (inactive) | > 100 µM (inactive) | > 100 µM (inactive) | > 100 µM (inactive) | > 100 µM (inactive) | > 100 µM (inactive) | > 100 µM (inactive) | > 100 µM (inactive) | > 100 µM (inactive) | > 100 µM (inactive)
8 | COCCN(CCNC(=O)c1cccc2c(N)c3cccc(C)c3nc12)CCOC | 0.562 µM (active) | 0.681 µM (active) | 0.528 µM (active) | 0.9 µM (active) | 0.558 µM (active) | 0.449 µM (active) | 0.83 µM (active) | 0.136 µM (active) | 0.144 µM (active) | 4.4 µM (inactive) | 0.589 µM (active) | 2.2 µM (inactive) | 1 µM (active) | 0.931 µM (active) | 7.35 µM (inactive) | 5.36 µM (inactive) | 0.582 µM (active) | 2.48 µM (inactive) | 0.491 µM (active) | 3.47 µM (inactive)
9 | CC(=O)NC1C(O)C(O)C(CO)OC1n1ncc(=O)[nH]c1=O (stereo not given) | > 100 µM (inactive) | > 100 µM (inactive) | > 100 µM (inactive) | > 100 µM (inactive) | > 100 µM (inactive) | > 100 µM (inactive) | > 100 µM (inactive) | > 100 µM (inactive) | > 100 µM (inactive) | > 100 µM (inactive) | > 100 µM (inactive) | > 100 µM (inactive) | > 100 µM (inactive) | > 100 µM (inactive) | > 100 µM (inactive) | > 100 µM (inactive) | > 100 µM (inactive) | > 100 µM (inactive) | > 100 µM (inactive) | > 100 µM (inactive)
10 | Cc1oc(N)c(S(=O)(=O)/C(C#N)=C/c2ccccc2[N+](=O)[O-])c1C | 30.5 µM (inactive) | 25.4 µM (inactive) | 22.6 µM (inactive) | 20.8 µM (inactive) | 19.2 µM (inactive) | 18.6 µM (inactive) | 25.2 µM (inactive) | 31.1 µM (inactive) | 22.4 µM (inactive) | 27.3 µM (inactive) | 38.5 µM (inactive) | 20.6 µM (inactive) | 23.1 µM (inactive) | 25.5 µM (inactive) | 24.2 µM (inactive) | 37.2 µM (inactive) | 22.9 µM (inactive) | 33.5 µM (inactive) | 26.6 µM (inactive) | 19.5 µM (inactive)
11 | Cc1ccn2c(=O)cc(CN3CCOCC3)nc2c1 | > 100 µM (inactive) | > 100 µM (inactive) | > 100 µM (inactive) | > 100 µM (inactive) | > 100 µM (inactive) | > 100 µM (inactive) | > 100 µM (inactive) | > 100 µM (inactive) | > 100 µM (inactive) | > 100 µM (inactive) | > 100 µM (inactive) | > 100 µM (inactive) | > 100 µM (inactive) | > 100 µM (inactive) | > 100 µM (inactive) | > 100 µM (inactive) | > 100 µM (inactive) | > 100 µM (inactive) | > 100 µM (inactive) | > 100 µM (inactive)
12 | Nc1nc(N)c2c3c(cnc2n1)CC(c1ccccc1)CC3 (stereo not given) | 7.83 µM (inactive) | 5 µM (inactive) | 28.1 µM (inactive) | 2.86 µM (inactive) | 5.66 µM (inactive) | 0.875 µM (active) | 23.9 µM (inactive) | 11.7 µM (inactive) | 50.5 µM (inactive) | 20.3 µM (inactive) | 14.3 µM (inactive) | 14.3 µM (inactive) | 21.9 µM (inactive) | 14.3 µM (inactive) | 35.6 µM (inactive) | 32.3 µM (inactive) | 17.3 µM (inactive) | 13.6 µM (inactive) | 11.4 µM (inactive) | 10.7 µM (inactive)
13 | COc1ccc(C(=O)O[C@H]2CC[C@@]3(C)[C@@H]4CC[C@H]5[C@]6(O)C[C@H](O)[C@@]7(O)[C@@H](CN8C[C@@H](C)CC[C@H]8[C@@]7(C)O)[C@]6(O)C[C@@]53OC24O)cc1OC [VERATRIDINE] | > 100 µM (inactive) | > 100 µM (inactive) | > 100 µM (inactive) | > 100 µM (inactive) | 60.1 µM (inactive) | > 100 µM (inactive) | > 100 µM (inactive) | > 100 µM (inactive) | 95.5 µM (inactive) | > 100 µM (inactive) | > 100 µM (inactive) | > 100 µM (inactive) | > 100 µM (inactive) | 82 µM (inactive) | > 100 µM (inactive) | > 100 µM (inactive) | > 100 µM (inactive) | > 100 µM (inactive) | > 100 µM (inactive) | > 100 µM (inactive)
14 | CCn1c2ccccc2c2nnc(NCCCO)nc21 | > 100 µM (inactive) | > 100 µM (inactive) | > 100 µM (inactive) | > 100 µM (inactive) | > 100 µM (inactive) | > 100 µM (inactive) | > 100 µM (inactive) | > 100 µM (inactive) | 58.2 µM (inactive) | > 100 µM (inactive) | > 100 µM (inactive) | > 100 µM (inactive) | > 100 µM (inactive) | > 100 µM (inactive) | > 100 µM (inactive) | > 100 µM (inactive) | > 100 µM (inactive) | > 100 µM (inactive) | > 100 µM (inactive) | > 100 µM (inactive)

Source: ChEMBL document CHEMBL1201862, “PubChem BioAssay data set” (2004)
